Molecules are shown by their SMILES.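 Following 48 hours of exposure in 96-well plates, responses at five concentrations were used to interpolate endpoints linearly. GI50: concentration for 50% inhibition of growth. TGI: total growth inhibition.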

Our source for the TGI and GI50 values is PubChem BioAssay (NCI).

Some test systems named below: SN12C renal; OVCAR-3 ovarian; NCI-H460 lung; DU-145 prostate; SR leukemia; HL-60(TB) leukemia; SK-MEL-28 melanoma; RXF 393 renal; RPMI-8226 leukemia; SF-539 CNS.
Common to all, as to test: NCI anticancer screen, dose series, 48 h

On to `COc1cc(/C=C2/Oc3c(OC)cccc3C2=O)ccc1O`, for which the TGI with SN12C renal, with OVCAR-3 ovarian, in the test with NCI-H460 lung, with DU-145 prostate, with SR leukemia and with HL-60(TB) leukemia was over 100 µM in each case. Moreover, the TGI in the test on SK-MEL-28 melanoma, with RXF 393 renal and in the test on RPMI-8226 leukemia was over 100 µM each time.
Consider `CCN(CC)CCNc1ccc([N+](=O)[O-])c2sc3cc(Cl)ccc3c(=O)c12`, for which the GI50 in the test with SN12C renal is 2.05 µM; in the test on OVCAR-3 ovarian it was 4.62 µM; in the test with SF-539 CNS, 2.05 µM; with DU-145 prostate it was 7.68 µM; with SR leukemia it was 4.7 µM; with HL-60(TB) leukemia it was 11.5 µM. For the same compound, the GI50 with RPMI-8226 leukemia was 2.32 µM. Further, the TGI in the test with SN12C renal was 6.58 µM; in the test with OVCAR-3 ovarian it was 32.3 µM; with SF-539 CNS it was 5.25 µM; in the test with DU-145 prostate it was 25.1 µM; with SR leukemia it was over 100 µM; in the test with HL-60(TB) leukemia, over 100 µM. The TGI with RPMI-8226 leukemia worked out at 6.55 µM.
Turning to `NC(Cc1ccccc1CP(=O)(O)O)C(=O)O` (stereo not drawn), the TGI with SN12C renal, in the test with OVCAR-3 ovarian, with SF-539 CNS, in the test with NCI-H460 lung, in the test with DU-145 prostate and with SR leukemia was over 100 µM each time. Moreover, the TGI in the test with HL-60(TB) leukemia, with SK-MEL-28 melanoma, in the test on RXF 393 renal and in the test on RPMI-8226 leukemia was over 100 µM throughout.
Regarding `COc1ccc(CC[N+]2(C)COc3cc4oc(=O)cc(C)c4cc3C2)cc1OC` (stereo not drawn), the TGI in the test on SN12C renal, in the test on OVCAR-3 ovarian, with DU-145 prostate, in the test with SR leukemia, in the test with HL-60(TB) leukemia and with SK-MEL-28 melanoma was over 100 µM throughout. Also, the TGI in the test with RXF 393 renal and in the test with RPMI-8226 leukemia was over 100 µM throughout.
Consider `C(=C\c1c2oc(-c3ccccc3)cc(-c3ccccc3)c-2c2ccccc12)/C=C1\c2ccccc2-c2c(-c3ccccc3)cc(-c3ccccc3)[o+]c21`, for which the TGI in the test on SN12C renal, with OVCAR-3 ovarian, in the test on SF-539 CNS, in the test with NCI-H460 lung, in the test with SR leukemia and with HL-60(TB) leukemia was over 100 µM each time. The TGI in the test with SK-MEL-28 melanoma, in the test on RXF 393 renal and in the test with RPMI-8226 leukemia was over 100 µM in each case.
Consider `Cc1ccc(NCCN(C)C)c2c(=O)c3cc(O)ccc3sc12`, for which the TGI in the test on SN12C renal came out at 14 µM; in the test with OVCAR-3 ovarian, 18.6 µM; with SF-539 CNS, 10.4 µM; with NCI-H460 lung, 5.72 µM; in the test on DU-145 prostate, 15.6 µM; in the test on SR leukemia, 4.79 µM. The TGI with HL-60(TB) leukemia was 6.07 µM; in the test with SK-MEL-28 melanoma, 12.5 µM; in the test on RXF 393 renal, 4.8 µM; in the test with RPMI-8226 leukemia, 11.6 µM.
Take `Cc1ncc(CSC(=N)N)n1Cc1ccccc1`: the TGI in the test with SN12C renal, in the test with OVCAR-3 ovarian, in the test on SF-539 CNS, with NCI-H460 lung, with DU-145 prostate and in the test on SK-MEL-28 melanoma was over 100 µM throughout. For the same compound, the TGI in the test on RXF 393 renal is over 100 µM; in the test with RPMI-8226 leukemia, 83.2 µM.
Take `CCOC(=O)c1csc(NC(=O)C(C)N2CCOCC2)n1` (stereo not drawn): the TGI with OVCAR-3 ovarian, with SF-539 CNS, in the test on NCI-H460 lung, in the test on DU-145 prostate, in the test with SR leukemia and in the test with HL-60(TB) leukemia was over 100 µM throughout. Besides, the TGI with SK-MEL-28 melanoma, with RXF 393 renal and with RPMI-8226 leukemia was over 100 µM in each case.
Regarding `O=S(=O)(O)c1cc(O)c(N=Nc2ccc3ccccc3c2O)c2ccccc12`, the TGI in the test on SN12C renal is over 100 µM; in the test with OVCAR-3 ovarian, over 100 µM; in the test on DU-145 prostate, 31.6 µM; in the test with SR leukemia it was over 100 µM; in the test with HL-60(TB) leukemia it was over 100 µM; with SK-MEL-28 melanoma it was over 100 µM. Also, the TGI in the test on RXF 393 renal and in the test with RPMI-8226 leukemia was over 100 µM in each case.
Turning to `c1cncc([O][Ge]([O]c2cccnc2)([O]c2cccnc2)[O]c2cccnc2)c1`, the GI50 in the test with SN12C renal, in the test on OVCAR-3 ovarian, in the test with SF-539 CNS, with NCI-H460 lung, in the test with SR leukemia and in the test on SK-MEL-28 melanoma was over 100 µM throughout. The GI50 in the test with RXF 393 renal was over 100 µM. Further, the TGI in the test with SN12C renal, with OVCAR-3 ovarian, with SF-539 CNS, with NCI-H460 lung, in the test on SR leukemia and with SK-MEL-28 melanoma was over 100 µM each time. This compound also came in with a TGI with RXF 393 renal of over 100 µM.
Regarding `CC(C)=CC(=O)c1c(C(=O)O)nc2ccccc2[n+]1[O-]`, the TGI in the test with SN12C renal, with SF-539 CNS, in the test on NCI-H460 lung, in the test on SR leukemia, with HL-60(TB) leukemia and in the test with SK-MEL-28 melanoma was over 100 µM each time. For the same compound, the TGI in the test with RXF 393 renal and in the test on RPMI-8226 leukemia was over 100 µM in each case.
Consider `CC(C)=CCC/C(C)=C/C=C/C(C)=C/C1C[C@@]2(C(O)O1)[C@H](CCCO)/C(=C(/C)C=O)CC[C@]2(C)O` (stereo partly drawn), for which the TGI is 30.8 µM in the test with SN12C renal; 25 µM in the test with SF-539 CNS; 25.5 µM with NCI-H460 lung; 37.2 µM with SR leukemia; 29 µM in the test with HL-60(TB) leukemia; 32.3 µM in the test with SK-MEL-28 melanoma. The TGI in the test on RXF 393 renal was determined as 35.2 µM.
In the case of `CC(=O)[C@]1(O)Cc2c(O)c3c(c(O)c2[C@@H](OC2CC(N)C(O)C(C)O2)C1)C(=O)c1c(OCc2ccccc2)cccc1C3=O` (stereo partly drawn), the TGI came out at 4.65 µM with SN12C renal; 6.87 µM in the test with OVCAR-3 ovarian; 7.45 µM in the test on SF-539 CNS; 6.31 µM in the test with NCI-H460 lung; 3.4 µM with DU-145 prostate; 0.468 µM in the test with SR leukemia. Moreover, the TGI with SK-MEL-28 melanoma was 2.91 µM; in the test on RXF 393 renal, 15.1 µM; in the test on RPMI-8226 leukemia it was over 100 µM.
Consider `O=C(O)/C=C/c1ccncc1`, for which the TGI in the test with SN12C renal, with OVCAR-3 ovarian, in the test on SF-539 CNS, in the test with NCI-H460 lung, in the test on SR leukemia and in the test with HL-60(TB) leukemia was over 100 µM throughout. Besides, the TGI in the test with SK-MEL-28 melanoma, in the test with RXF 393 renal and with RPMI-8226 leukemia was over 100 µM in each case.
As to `COc1cc2c(cc1OCCCOc1ccc(-c3cc4ccccc4c4ccccc34)cc1)N=C[C@@H]1CCCN1C2=O`, the GI50 with SN12C renal is 0.518 µM; in the test on OVCAR-3 ovarian, 0.252 µM; in the test with SF-539 CNS, 1.58 µM; in the test on NCI-H460 lung, 1.04 µM; in the test with DU-145 prostate it was 0.385 µM; in the test with SR leukemia it was 0.222 µM. The results for the GI50 in the test with HL-60(TB) leukemia, in the test on SK-MEL-28 melanoma and with RXF 393 renal were 0.171 µM, 0.555 µM and 0.24 µM, respectively. In addition, the TGI in the test with SN12C renal worked out at 1.84 µM; in the test with OVCAR-3 ovarian, 0.786 µM; in the test with SF-539 CNS, 2.92 µM; in the test on NCI-H460 lung, 2.21 µM; in the test with DU-145 prostate, 1.42 µM; with SR leukemia, 0.717 µM. For the same compound, the TGI is 0.393 µM with HL-60(TB) leukemia, 1.38 µM in the test on SK-MEL-28 melanoma and 0.624 µM in the test with RXF 393 renal.
With `CC1(Cl)CC(C)(/C=C/Cl)C(Cl)CC1Cl` (stereo not drawn), the TGI with SN12C renal was determined as 31 µM; in the test on OVCAR-3 ovarian, 28 µM; in the test on SF-539 CNS, 34.4 µM; in the test with NCI-H460 lung it was 28.7 µM; with SR leukemia, 44.6 µM; in the test with SK-MEL-28 melanoma it was 29.4 µM. Besides, the TGI in the test with RXF 393 renal worked out at 30.6 µM.
For the compound `C[n+]1c(-c2ccc(/C=N/NC(=O)C(=O)N/N=C/c3ccc(-c4cn5ccccc5[n+]4C)cc3)cc2)cn2ccccc21`, the TGI with SN12C renal, in the test on OVCAR-3 ovarian, in the test with SF-539 CNS, in the test with NCI-H460 lung, in the test on DU-145 prostate and with HL-60(TB) leukemia was over 100 µM in each case. Further, the TGI in the test on RXF 393 renal and with RPMI-8226 leukemia was over 100 µM each time.
On to `Cc1ccc(NC(=O)C(=O)Cc2cccc[n+]2[O-])cc1C`, for which the TGI in the test with SN12C renal, in the test on OVCAR-3 ovarian, with SF-539 CNS, with NCI-H460 lung, in the test on SR leukemia and in the test on HL-60(TB) leukemia was over 100 µM in each case. In addition, the TGI with SK-MEL-28 melanoma, in the test with RXF 393 renal and in the test with RPMI-8226 leukemia was over 100 µM throughout.
With `C/C(=N\NC(=S)N1CCOCC1)c1nc2ncccc2[nH]1`, the TGI with SN12C renal is over 100 µM; in the test with OVCAR-3 ovarian, over 100 µM; in the test with SF-539 CNS it was 51.4 µM; with NCI-H460 lung it was over 100 µM; in the test on DU-145 prostate it was over 100 µM; in the test on SR leukemia, over 100 µM. For the same compound, the TGI in the test on HL-60(TB) leukemia, with SK-MEL-28 melanoma and with RPMI-8226 leukemia was over 100 µM throughout.
With `CC1CCCN1CCCOC(=O)c1ccc(OC2C=CCCC2)cc1` (stereo not drawn), the TGI was over 100 µM in the test with SN12C renal; over 100 µM in the test with OVCAR-3 ovarian; 74.9 µM with SF-539 CNS; 32.9 µM in the test with NCI-H460 lung; over 100 µM in the test with DU-145 prostate; 59.9 µM in the test with SR leukemia. Also, the TGI with HL-60(TB) leukemia is 35.6 µM; in the test on SK-MEL-28 melanoma it was over 100 µM; in the test with RXF 393 renal, 52 µM; with RPMI-8226 leukemia, 68.2 µM.
